# Experimental data as given in patent US11484601B2, “Targeting M2-like tumor-associated macrophages by using melittin-based proapoptotic peptide” (TWI[…]., priority 2018, dated 2022).
# Experiments:
# [1] = MTS cell viability assay, M1-type macrophage; type: cell-based; conditions: mouse, RAW264.7 macrophages differentiated into M1-type with LPS, 0.6 to 0.8 μM
# Procedure: More specifically, dKLA (SEQ ID NO: 2), MEL (SEQ ID NO: 1), MEL-dKLA (SEQ ID NO: 3; […]-d[KLAKLAKKLAKLAK]) peptide and 5-carboxyl tetramethylrhodamine (TMR)-conjugated dKLA, MEL and MEL-KLA peptides were purchased from GenScript (Piscataway, N.J., USA). TMR was conjugated with the amino group located at the N-terminal of the peptide. Regarding all of the peptides, 95% or greater purified peptides were used. Murine Lewis lung carcinoma (LLC) cells and macrophage RAW264.7 of mice were cultured in Dulbecco's modified Eagle's medium (DMEM; Welgene, Korea) to which 10% heat-inactivated fetal bovine serum (Welgene), 100 U/mL penicillin and 100 μg/mL streptomycin (Invitrogen, CA, USA) were added. Macrophage (RAW264.7) differentiated into M2-type was treated with IL-4 and IL-13 in the medium for 24 hours. After the treatment, the cells were cultured in a state in which serum was insufficient for 48 hours. M1-type macrophage was treated with 1 ng/mL of LPS for 24 hours to induce differentiation.
# The cell viability test was measured via the MTS assay. RAW264.7 macrophage was differentiated into M1-type or M2-type macrophage which was inoculated onto a 96-well plate at 3×10^4 cells/well. The next day, the macrophage was treated with each of PBS, dKLA, MEL and MEL-dKLA. […] Then, fluorescence was measured at 490 nm to measure cell viability.
# M1 macrophage = experiment: Annexin V-FITC / MitoTracker flow cytometry, M1 macrophage; type: cell-based, mouse; conditions: 0.8 μM peptide
# Procedure: More specifically, the cells were stained with Annexin V-fluorescein isothiocyanate (FITC; BD Biosciences, CA, USA) and MitoTracker RedBOX (Invitrogen). The cells were inoculated at 5×10^5 cells/well, onto a 24-well plate. The next day, 0.8 μM peptide was applied thereto. In 1, 3 and 6 hours after the application, the cells were reacted with 250 nM MitoTracker for 1 hour in a serum-free culture solution. Thereafter, the cells were collected and reacted with Annexin V again. The reacted cells were measured with BD FACSCalibur, and were analyzed via FlowJo software (Treestar, Inc., CA, USA). MitoTracker could pass through protoplasmic membrane depending on the membrane charge and then accumulated within the mitochondria. In other words, staining may be identified in the mitochondria membrane of living cells, but staining may be difficult in cells where apoptosis occurs due to membrane disturbance.
# [2] = test system: CD31+ endothelial cells of LLC tumors; experiment: CD31 immunofluorescence staining of tumor endothelial cells; type: in vivo, mouse; conditions: LLC tumor sections
# Source text: CD31 (PECAM-1) is […] the vascular endothelium, and is well-known as a marker that may indicate angiogenesis. The angiogenesis in tumors is essential means to supply oxygen and nutrients to areas at a low oxygen level in the tumor and thus is closely related to cancer growth and metastasis. M2-type macrophages are major precursors of angiogenic factors, and contain cyclooxygenase-2, matrix metalloproteinase-9 and VEGF. The density of macrophage is related to angiogenesis. Therefore, immunostaining was performed and a confocal device was used to identify whether a decrease in the M2-type tumor-associated macrophage (TAM) in a tumor causes a decrease in angiogenesis.
# More specifically, the tissue was […] with paraformaldehyde for 24 hours. Then, the tissue was cut into sections having 4 μm thickness using a rotary microtome, which in turn was restored via autoclaving under pressure for 1 minute with tri-sodium citrate buffer. […] After the staining, the sections were mounted on and analyzed using a laser scanning confocal microscope (Carl Zeiss). All images are taken using LSMS PASCAL, and fluorescence values were analyzed using ImageJ software.
structure (smiles),measurement,setting,value
CC[C@H](C)[C@H](NC(=O)CN)C(=O)NCC(=O)N[C@@H](C)C(=O)N[C@H](C(=O)N[C@@H](CC(C)C)C(=O)N[C@@H](CCCCN)C(=O)N[C@H](C(=O)N[C@@H](CC(C)C)C(=O)N[C@H](C(=O)N[C@H](C(=O)NCC(=O)N[C@@H](CC(C)C)C(=O)N1CCC[C@H]1C(=O)N[C@@H](C)C(=O)N[C@@H](CC(C)C)C(=O)N[C@H](C(=O)N[C@@H](CO)C(=O)N[C@@H](Cc1c[nH]c2ccccc12)C(=O)N[C@H](C(=O)N[C@@H](CCCCN)C(=O)N[C@@H](CCCNC(=N)N)C(=O)N[C@@H](CCCCN)C(=O)N[C@@H](CCCNC(=N)N)C(=O)N[C@@H](CCC(N)=O)C(=O)N[C@@H](CCC(N)=O)C(N)=O)[C@@H](C)CC)[C@@H](C)CC)[C@@H](C)O)[C@@H](C)O)C(C)C)C(C)C [MEL],viability at 24 h,[1],74%
same,Annexin V / MitoTracker staining effect on M1 macrophage,M1 macrophage; 1 to 3 hours,the effect did not appear
same,Annexin V / MitoTracker staining change in M1 macrophage,M1 macrophage; 6 hours,no significant change
same,CD31+ endothelial cells (blood vessel density),[2],significant decrease
